# Measured values taken from US20240408170A1, “COMPOSITION FOR DECOMPOSITION OF TRYPSIN OR TMPRSS2” (Riken, priority 2021, published 2024).
# Legend:
# IgA heavy chain = test: Ex vivo incubation of mouse faeces at 37° C. for 48 hours, western blot; conditions: faeces of GF mice inoculated together with 2-mix, 37° C. 48 hours
# Experimental: (§1) Mouse faecal samples were suspended and diluted 50-fold with phosphate buffered saline (PBS) to which a protease inhibitor cocktail (Roche) was added. Subsequently, the suspended sample was centrifuged at 15,000×g for 10 minutes at 4° C., and the supernatant was subjected to western blot. Mouse pancreatic tissue was rapidly frozen in liquid nitrogen. Proteins were extracted by TRIzol Reagent (Thermo Fisher Scientific K.K.), and the final protein concentration was adjusted to 4 μg/μL. For SDS-PAGE and blotting, Novex (registered trademark) NuPAGE (registered trademark) SDS-PAGE Gel system (Thermo Fisher Scientific K.K.) and iBlotTM 2 Dry Blotting System (Thermo Fisher Scientific K.K.) were used according to the manufacturer's instructions. The antibodies used are as follows. A rabbit anti-mouse PRSS2 antibody (Cosmo Bio Co., Ltd.), a rabbit anti-mouse HSP90 antibody (#4877, Cell Signaling Technology, Inc.), a rabbit anti-human PRSS2 antibody (LS-B15726, LSBio), a rabbit anti-human PRSS1 antibody (LS-331381, LSBio), a rabbit anti-mouse TMPRSS2 antibody (LS-C373022, LSBio, against the sequence of the protease domain), a rabbit anti-6-His antibody ([…]-[…], Bethyl Laboratories, Inc.), a goat anti-mouse IgA a chain antibody (HRP) (ab97235, Abcam plc.), a rat anti-mouse κ chain antibody (HRP) (ab99632, Abcam plc.), a rabbit anti-mouse CELA3b antibody (OACD03205, Aviva Systems Biology Corporation), an anti-rabbit IgG antibody (HRP) (#7074, Cell Signaling Technology, Inc.), and a rabbit anti-mouse Reg3 antibody (51153-[…], Sino Biological, Inc.).
# trypsin (PRSS2) = molecular target: T1, trypsin (PRSS2) (Mus musculus, UniProt P07146); test: as above; conditions: faeces of GF mice inoculated together with 2-mix, 37° C. 48 hours
# T1 construct: the anionic trypsin protease was abundantly present in the cecal contents and the faeces; from tissue; host or cells: faeces and cecal contents of germ-free / gnotobiotic mice
# T1 sequence (P07146 24-246): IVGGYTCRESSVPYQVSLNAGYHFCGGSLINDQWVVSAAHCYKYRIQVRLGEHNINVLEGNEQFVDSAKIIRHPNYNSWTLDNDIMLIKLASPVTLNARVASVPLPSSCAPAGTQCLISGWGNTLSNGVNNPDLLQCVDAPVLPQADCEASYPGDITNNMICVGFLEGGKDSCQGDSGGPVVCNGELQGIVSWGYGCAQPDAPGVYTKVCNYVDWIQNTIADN
# Experimental: as §1
# TMPRSS2 = molecular target: T2, TMPRSS2 (Mus musculus, UniProt Q9JIQ8); test: Western blot of faeces of GF mice inoculated with P. clara strain together with 2-mix; type: in vivo
# T2 construct: from tissue; host or cells: faeces of gnotobiotic mice
# Experimental: Mouse faecal samples were suspended and diluted 50-fold with phosphate buffered saline (PBS) to which a protease inhibitor cocktail (Roche) was added. Subsequently, the suspended sample was centrifuged at 15,000×g for 10 minutes at 4° C., and the supernatant was subjected to western blot. Mouse pancreatic tissue was rapidly frozen in liquid nitrogen. Proteins were extracted by TRIzol Reagent (Thermo Fisher Scientific K.K.), and the final protein concentration was adjusted to 4 μg/μL. For SDS-PAGE and blotting, Novex (registered trademark) NuPAGE (registered trademark) SDS-PAGE Gel system (Thermo Fisher Scientific K.K.) and iBlot™ 2 Dry Blotting System (Thermo Fisher Scientific K.K.) were used according to the manufacturer's instructions.
# The antibodies used are as follows. […]
# T2 sequence (Q9JIQ8 254-490 limits assumed): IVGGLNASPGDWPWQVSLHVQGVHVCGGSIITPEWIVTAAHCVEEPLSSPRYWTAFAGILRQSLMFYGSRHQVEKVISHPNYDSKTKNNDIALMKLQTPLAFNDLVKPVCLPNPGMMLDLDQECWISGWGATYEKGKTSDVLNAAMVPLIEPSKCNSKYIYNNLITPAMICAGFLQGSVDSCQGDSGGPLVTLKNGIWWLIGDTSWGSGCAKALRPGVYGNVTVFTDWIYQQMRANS
substance,measurement,setting,value
Paraprevotella clara [JCM 14859],IgA heavy chain in faeces,IgA heavy chain,remained
same,trypsin in faeces,trypsin (PRSS2),reduced
same,amount of TMPRSS2 in the faeces,TMPRSS2,reduced
